{"source": "patent US6677466B1", "about": "“Method for stabilizing hydrogen peroxide” (DSM Fine Chemicals Austria NFG GmbH & Co KG, priority 1999, dated 2004)", "test": "O2 evolution from RuO2.xH2O-catalysed decomposition of H2O2 with stabilizer", "type": "physicochemical", "protocol": "A 50% strength aqueous solution of H2O2 (304 mg; 4.46 mmol) was added to 454 mg (4.46 mmol) of methyl pyruvate and to 535 mg (4.46 mmol) of glyoxylic methyl ester methyl hemiacetal, respectively. In the case of methyl pyruvate, a marked evolution of heat was discovered during the addition. After one hour, the H2O2/α-keto ester mixture was mixed with 1 ml of solvent and added to a suspension of 2.5 mg of RuO2.xH2O catalyst (Aldrich) in 4 ml of solvent. The suspension was introduced into a 50 ml flask which was maintained at room temperature in a water bath.\nAs a comparison, a suspension of 2.5 mg of RuO2.xH2O catalyst (Aldrich) in 4 ml of solvent was combined with a 50% strength aqueous solution of H2O2 (304 mg; 4.46 mmol) and 1 ml of solvent without stabilizer.\nThe amount of oxygen which […] the decomposition of the hydrogen peroxide was determined as a function of time using a Brooks meter, which permitted measurement of the gas flow and of the total amount of evolved gas.\nThe amount of oxygen is defined here as % of the maximum amount to be calculated on the basis of stoichiometry."}
{"smiles": "COC(=O)C(O)OC", "note": "(stereo not drawn) [GMHA, glyoxylic methyl ester methyl hemiacetal]", "values": [{"measurement": "O2 evolution V(O2) (Vmax(O2)*100%)", "setting": "solv. acetic acid, t 1 min", "value": 0, "unit": "%"}, {"measurement": "O2 evolution V(O2) (Vmax(O2)*100%)", "setting": "solv. acetic acid, t 2 min", "value": 1, "unit": "%"}, {"measurement": "O2 evolution V(O2) (Vmax(O2)*100%)", "setting": "solv. acetic acid, t 3 min", "value": 2, "unit": "%"}, {"measurement": "O2 evolution V(O2) (Vmax(O2)*100%)", "setting": "solv. acetic acid, t 4 min", "value": 2, "unit": "%"}, {"measurement": "O2 evolution V(O2) (Vmax(O2)*100%)", "setting": "solv. acetic acid, t 5 min", "value": 2, "unit": "%"}, {"measurement": "O2 evolution V(O2) (Vmax(O2)*100%)", "setting": "solv. acetic acid, t 10 min", "value": 2, "unit": "%"}, {"measurement": "O2 evolution V(O2) (Vmax(O2)*100%)", "setting": "solv. acetic acid, t 15 min", "value": 2, "unit": "%"}, {"measurement": "O2 evolution V(O2) (Vmax(O2)*100%)", "setting": "solv. acetic acid, t 20 min", "value": 2, "unit": "%"}, {"measurement": "O2 evolution V(O2) (Vmax(O2)*100%)", "setting": "solv. acetic acid, t 25 min", "value": 2, "unit": "%"}, {"measurement": "O2 evolution V(O2) (Vmax(O2)*100%)", "setting": "solv. acetic acid, t 30 min", "value": 2, "unit": "%"}, {"measurement": "O2 evolution V(O2) (Vmax(O2)*100%)", "setting": "solv. acetic acid, t 35 min", "value": 2, "unit": "%"}, {"measurement": "O2 evolution V(O2) (Vmax(O2)*100%)", "setting": "solv. acetic acid, t 40 min", "value": 2, "unit": "%"}, {"measurement": "O2 evolution V(O2) (Vmax(O2)*100%)", "setting": "solv. acetone, t 1 min", "value": 0, "unit": "%"}, {"measurement": "O2 evolution V(O2) (Vmax(O2)*100%)", "setting": "solv. acetone, t 2 min", "value": 0, "unit": "%"}, {"measurement": "O2 evolution V(O2) (Vmax(O2)*100%)", "setting": "solv. acetone, t 3 min", "value": 0, "unit": "%"}, {"measurement": "O2 evolution V(O2) (Vmax(O2)*100%)", "setting": "solv. acetone, t 4 min", "value": 0, "unit": "%"}, {"measurement": "O2 evolution V(O2) (Vmax(O2)*100%)", "setting": "solv. acetone, t 5 min", "value": 0, "unit": "%"}, {"measurement": "O2 evolution V(O2) (Vmax(O2)*100%)", "setting": "solv. acetone, t 10 min", "value": 0, "unit": "%"}, {"measurement": "O2 evolution V(O2) (Vmax(O2)*100%)", "setting": "solv. acetone, t 15 min", "value": 0, "unit": "%"}, {"measurement": "O2 evolution V(O2) (Vmax(O2)*100%)", "setting": "solv. acetone, t 20 min", "value": 0, "unit": "%"}, {"measurement": "O2 evolution V(O2) (Vmax(O2)*100%)", "setting": "solv. acetone, t 25 min", "value": 0, "unit": "%"}, {"measurement": "O2 evolution V(O2) (Vmax(O2)*100%)", "setting": "solv. acetone, t 30 min", "value": 0, "unit": "%"}, {"measurement": "O2 evolution V(O2) (Vmax(O2)*100%)", "setting": "solv. acetone, t 35 min", "value": 0, "unit": "%"}, {"measurement": "O2 evolution V(O2) (Vmax(O2)*100%)", "setting": "solv. acetone, t 40 min", "value": 0, "unit": "%"}, {"measurement": "O2 evolution V(O2) (Vmax(O2)*100%)", "setting": "solv. acetonitrile, t 1 min", "value": 3, "unit": "%"}, {"measurement": "O2 evolution V(O2) (Vmax(O2)*100%)", "setting": "solv. acetonitrile, t 2 min", "value": 3, "unit": "%"}, {"measurement": "O2 evolution V(O2) (Vmax(O2)*100%)", "setting": "solv. acetonitrile, t 3 min", "value": 3, "unit": "%"}, {"measurement": "O2 evolution V(O2) (Vmax(O2)*100%)", "setting": "solv. acetonitrile, t 4 min", "value": 3, "unit": "%"}, {"measurement": "O2 evolution V(O2) (Vmax(O2)*100%)", "setting": "solv. acetonitrile, t 5 min", "value": 3, "unit": "%"}, {"measurement": "O2 evolution V(O2) (Vmax(O2)*100%)", "setting": "solv. acetonitrile, t 10 min", "value": 3, "unit": "%"}, {"measurement": "O2 evolution V(O2) (Vmax(O2)*100%)", "setting": "solv. acetonitrile, t 15 min", "value": 3, "unit": "%"}, {"measurement": "O2 evolution V(O2) (Vmax(O2)*100%)", "setting": "solv. acetonitrile, t 20 min", "value": 3, "unit": "%"}, {"measurement": "O2 evolution V(O2) (Vmax(O2)*100%)", "setting": "solv. acetonitrile, t 25 min", "value": 3, "unit": "%"}, {"measurement": "O2 evolution V(O2) (Vmax(O2)*100%)", "setting": "solv. acetonitrile, t 30 min", "value": 3, "unit": "%"}, {"measurement": "O2 evolution V(O2) (Vmax(O2)*100%)", "setting": "solv. acetonitrile, t 35 min", "value": 3, "unit": "%"}, {"measurement": "O2 evolution V(O2) (Vmax(O2)*100%)", "setting": "solv. acetonitrile, t 40 min", "value": 3, "unit": "%"}, {"measurement": "O2 evolution V(O2) (Vmax(O2)*100%)", "setting": "solv. ethyl acetate, t 1 min", "value": 3, "unit": "%"}, {"measurement": "O2 evolution V(O2) (Vmax(O2)*100%)", "setting": "solv. ethyl acetate, t 2 min", "value": 5, "unit": "%"}, {"measurement": "O2 evolution V(O2) (Vmax(O2)*100%)", "setting": "solv. ethyl acetate, t 3 min", "value": 6, "unit": "%"}, {"measurement": "O2 evolution V(O2) (Vmax(O2)*100%)", "setting": "solv. ethyl acetate, t 4 min", "value": 7, "unit": "%"}, {"measurement": "O2 evolution V(O2) (Vmax(O2)*100%)", "setting": "solv. ethyl acetate, t 5 min", "value": 8, "unit": "%"}, {"measurement": "O2 evolution V(O2) (Vmax(O2)*100%)", "setting": "solv. ethyl acetate, t 10 min", "value": 9, "unit": "%"}, {"measurement": "O2 evolution V(O2) (Vmax(O2)*100%)", "setting": "solv. ethyl acetate, t 15 min", "value": 9, "unit": "%"}, {"measurement": "O2 evolution V(O2) (Vmax(O2)*100%)", "setting": "solv. ethyl acetate, t 20 min", "value": 9, "unit": "%"}, {"measurement": "O2 evolution V(O2) (Vmax(O2)*100%)", "setting": "solv. ethyl acetate, t 25 min", "value": 9, "unit": "%"}, {"measurement": "O2 evolution V(O2) (Vmax(O2)*100%)", "setting": "solv. ethyl acetate, t 30 min", "value": 9, "unit": "%"}, {"measurement": "O2 evolution V(O2) (Vmax(O2)*100%)", "setting": "solv. ethyl acetate, t 35 min", "value": 9, "unit": "%"}, {"measurement": "O2 evolution V(O2) (Vmax(O2)*100%)", "setting": "solv. ethyl acetate, t 40 min", "value": 9, "unit": "%"}, {"measurement": "O2 evolution V(O2) (Vmax(O2)*100%)", "setting": "solv. methanol, t 1 min", "value": 0, "unit": "%"}, {"measurement": "O2 evolution V(O2) (Vmax(O2)*100%)", "setting": "solv. methanol, t 2 min", "value": 0, "unit": "%"}, {"measurement": "O2 evolution V(O2) (Vmax(O2)*100%)", "setting": "solv. methanol, t 3 min", "value": 0, "unit": "%"}, {"measurement": "O2 evolution V(O2) (Vmax(O2)*100%)", "setting": "solv. methanol, t 4 min", "value": 0, "unit": "%"}, {"measurement": "O2 evolution V(O2) (Vmax(O2)*100%)", "setting": "solv. methanol, t 5 min", "value": 0, "unit": "%"}, {"measurement": "O2 evolution V(O2) (Vmax(O2)*100%)", "setting": "solv. methanol, t 10 min", "value": 0, "unit": "%"}, {"measurement": "O2 evolution V(O2) (Vmax(O2)*100%)", "setting": "solv. methanol, t 15 min", "value": 0, "unit": "%"}, {"measurement": "O2 evolution V(O2) (Vmax(O2)*100%)", "setting": "solv. methanol, t 20 min", "value": 0, "unit": "%"}, {"measurement": "O2 evolution V(O2) (Vmax(O2)*100%)", "setting": "solv. methanol, t 25 min", "value": 0, "unit": "%"}, {"measurement": "O2 evolution V(O2) (Vmax(O2)*100%)", "setting": "solv. methanol, t 30 min", "value": 0, "unit": "%"}, {"measurement": "O2 evolution V(O2) (Vmax(O2)*100%)", "setting": "solv. methanol, t 35 min", "value": 0, "unit": "%"}, {"measurement": "O2 evolution V(O2) (Vmax(O2)*100%)", "setting": "solv. methanol, t 40 min", "value": 0, "unit": "%"}, {"measurement": "O2 evolution V(O2) (Vmax(O2)*100%)", "setting": "solv. t-butanol, t 1 min", "value": 0, "unit": "%"}, {"measurement": "O2 evolution V(O2) (Vmax(O2)*100%)", "setting": "solv. t-butanol, t 2 min", "value": 0, "unit": "%"}, {"measurement": "O2 evolution V(O2) (Vmax(O2)*100%)", "setting": "solv. t-butanol, t 3 min", "value": 0, "unit": "%"}, {"measurement": "O2 evolution V(O2) (Vmax(O2)*100%)", "setting": "solv. t-butanol, t 4 min", "value": 0, "unit": "%"}, {"measurement": "O2 evolution V(O2) (Vmax(O2)*100%)", "setting": "solv. t-butanol, t 5 min", "value": 0, "unit": "%"}, {"measurement": "O2 evolution V(O2) (Vmax(O2)*100%)", "setting": "solv. t-butanol, t 10 min", "value": 0, "unit": "%"}, {"measurement": "O2 evolution V(O2) (Vmax(O2)*100%)", "setting": "solv. t-butanol, t 15 min", "value": 0, "unit": "%"}, {"measurement": "O2 evolution V(O2) (Vmax(O2)*100%)", "setting": "solv. t-butanol, t 20 min", "value": 0, "unit": "%"}, {"measurement": "O2 evolution V(O2) (Vmax(O2)*100%)", "setting": "solv. t-butanol, t 25 min", "value": 0, "unit": "%"}, {"measurement": "O2 evolution V(O2) (Vmax(O2)*100%)", "setting": "solv. t-butanol, t 30 min", "value": 0, "unit": "%"}, {"measurement": "O2 evolution V(O2) (Vmax(O2)*100%)", "setting": "solv. t-butanol, t 35 min", "value": 0, "unit": "%"}, {"measurement": "O2 evolution V(O2) (Vmax(O2)*100%)", "setting": "solv. t-butanol, t 40 min", "value": 0, "unit": "%"}, {"measurement": "O2 evolution V(O2) (Vmax(O2)*100%)", "setting": "solv. water, t 1 min", "value": 3, "unit": "%"}, {"measurement": "O2 evolution V(O2) (Vmax(O2)*100%)", "setting": "solv. water, t 2 min", "value": 4, "unit": "%"}, {"measurement": "O2 evolution V(O2) (Vmax(O2)*100%)", "setting": "solv. water, t 3 min", "value": 5, "unit": "%"}, {"measurement": "O2 evolution V(O2) (Vmax(O2)*100%)", "setting": "solv. water, t 4 min", "value": 6, "unit": "%"}, {"measurement": "O2 evolution V(O2) (Vmax(O2)*100%)", "setting": "solv. water, t 5 min", "value": 10, "unit": "%"}, {"measurement": "O2 evolution V(O2) (Vmax(O2)*100%)", "setting": "solv. water, t 10 min", "value": 13, "unit": "%"}, {"measurement": "O2 evolution V(O2) (Vmax(O2)*100%)", "setting": "solv. water, t 15 min", "value": 13, "unit": "%"}, {"measurement": "O2 evolution V(O2) (Vmax(O2)*100%)", "setting": "solv. water, t 20 min", "value": 13, "unit": "%"}, {"measurement": "O2 evolution V(O2) (Vmax(O2)*100%)", "setting": "solv. water, t 25 min", "value": 13, "unit": "%"}, {"measurement": "O2 evolution V(O2) (Vmax(O2)*100%)", "setting": "solv. water, t 30 min", "value": 13, "unit": "%"}, {"measurement": "O2 evolution V(O2) (Vmax(O2)*100%)", "setting": "solv. water, t 35 min", "value": 13, "unit": "%"}, {"measurement": "O2 evolution V(O2) (Vmax(O2)*100%)", "setting": "solv. water, t 40 min", "value": 13, "unit": "%"}]}
